What was measured:
[1] = target: recombinant rat α1β3γ2 receptors (Rattus norvegicus, UniProt P18508+P62813); assay: Two-electrode voltage clamp of GABA-induced chloride currents in Xenopus oocytes; type: cell-based; details: for efficacy (% GABA EC3): α1β3γ2, ns = not significant
[2] = target: recombinant rat α1β3γ2F77I receptors (Rattus norvegicus, UniProt P18508+P62813, F115I); assay: as above; type: cell-based; details: for efficacy (% GABA EC3): α1β3γ2F77I, ns = not significant
[3] = target: recombinant rat α2β3γ2 receptors (Rattus norvegicus, UniProt P18508+P23576); assay: as above; type: cell-based
[4] = target: recombinant rat α2β3γ2F77I receptors (Rattus norvegicus, UniProt P18508+P23576, F115I); assay: as above; type: cell-based; details: for efficacy (% GABA EC3): α2β3γ2F77I, ns = not significant
[5] = target: recombinant rat α3β3γ2 receptors (Rattus norvegicus, UniProt P18508+P20236); assay: as above; type: cell-based; details: for efficacy (% GABA EC3): α3β3γ2, ns = not significant
[6] = target: recombinant rat α3β3γ2F77I receptors (Rattus norvegicus, UniProt P18508+P20236, F115I); assay: as above; type: cell-based; details: for efficacy (% GABA EC3): α3β3γ2F77I, ns = not significant
[7] = target: recombinant rat α4β3γ2 receptors (Rattus norvegicus, UniProt P18508+P28471); assay: as above; type: cell-based; details: for efficacy (% GABA EC3): α4β3γ2, ns = not significant
[8] = target: recombinant rat α5β3γ2 receptors (Rattus norvegicus, UniProt P18508+P19969); assay: as above; type: cell-based; details: for efficacy (% GABA EC3): α5β3γ2, ns = not significant
[9] = target: recombinant rat α5β3γ2F77I receptors (Rattus norvegicus, UniProt P18508+P19969, F115I); assay: as above; type: cell-based; details: for efficacy (% GABA EC3): α5β3γ2F77I, ns = not significant
[10] = target: recombinant rat α6β3γ2 receptors (Rattus norvegicus, UniProt P18508+P30191); assay: as above; type: cell-based; details: for efficacy (% GABA EC3): α6β3γ2, ns = not significant
[11] = test system: GABAA receptors containing the γ2F77I mutation; assay: Modulation of GABA EC3 in receptors containing the γ2F77I mutation; type: cell-based, rat; details: up to 100 nM
[12] = target: recombinant rat α4β3γ2F77I receptors (Rattus norvegicus, UniProt P18508+P28471, F115I); assay: Two-electrode voltage clamp of GABA-induced chloride currents in Xenopus oocytes; type: cell-based; details: 10 μM, ns = not significant
[13] = read-out: efficacy (% GABA EC3)
[14] = 10 nM, α2β3γ2, ns = not significant
[15] = 100 nM, α2β3γ2, ns = not significant

recombinant rat α4β3γ2 receptors, sequence (P28471 36-552): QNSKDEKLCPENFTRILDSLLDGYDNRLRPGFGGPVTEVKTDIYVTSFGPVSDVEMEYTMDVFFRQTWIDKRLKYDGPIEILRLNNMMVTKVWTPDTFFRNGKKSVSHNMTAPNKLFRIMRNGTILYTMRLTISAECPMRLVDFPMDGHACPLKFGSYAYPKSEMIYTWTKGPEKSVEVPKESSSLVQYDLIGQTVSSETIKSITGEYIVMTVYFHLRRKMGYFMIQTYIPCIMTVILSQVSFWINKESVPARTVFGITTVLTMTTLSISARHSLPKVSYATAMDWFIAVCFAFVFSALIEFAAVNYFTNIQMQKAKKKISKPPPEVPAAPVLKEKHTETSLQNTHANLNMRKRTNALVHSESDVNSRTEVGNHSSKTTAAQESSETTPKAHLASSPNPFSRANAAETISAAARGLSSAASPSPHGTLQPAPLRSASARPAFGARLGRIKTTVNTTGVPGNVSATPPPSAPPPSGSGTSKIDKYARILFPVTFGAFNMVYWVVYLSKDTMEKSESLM
recombinant rat α4β3γ2 receptors, sequence (P63079 26-473 partner): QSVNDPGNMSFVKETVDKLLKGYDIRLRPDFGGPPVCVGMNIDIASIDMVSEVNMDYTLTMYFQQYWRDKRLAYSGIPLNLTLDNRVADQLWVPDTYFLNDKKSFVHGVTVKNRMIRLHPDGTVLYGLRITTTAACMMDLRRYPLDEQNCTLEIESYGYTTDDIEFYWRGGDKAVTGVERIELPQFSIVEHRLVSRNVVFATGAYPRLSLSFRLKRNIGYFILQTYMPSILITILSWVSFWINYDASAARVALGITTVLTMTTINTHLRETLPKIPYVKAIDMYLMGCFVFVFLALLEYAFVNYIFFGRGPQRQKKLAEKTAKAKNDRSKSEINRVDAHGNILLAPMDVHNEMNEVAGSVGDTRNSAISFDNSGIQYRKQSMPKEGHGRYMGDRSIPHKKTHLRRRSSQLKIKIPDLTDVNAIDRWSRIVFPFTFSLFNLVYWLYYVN
recombinant rat α4β3γ2 receptors, sequence (P18508 39-466): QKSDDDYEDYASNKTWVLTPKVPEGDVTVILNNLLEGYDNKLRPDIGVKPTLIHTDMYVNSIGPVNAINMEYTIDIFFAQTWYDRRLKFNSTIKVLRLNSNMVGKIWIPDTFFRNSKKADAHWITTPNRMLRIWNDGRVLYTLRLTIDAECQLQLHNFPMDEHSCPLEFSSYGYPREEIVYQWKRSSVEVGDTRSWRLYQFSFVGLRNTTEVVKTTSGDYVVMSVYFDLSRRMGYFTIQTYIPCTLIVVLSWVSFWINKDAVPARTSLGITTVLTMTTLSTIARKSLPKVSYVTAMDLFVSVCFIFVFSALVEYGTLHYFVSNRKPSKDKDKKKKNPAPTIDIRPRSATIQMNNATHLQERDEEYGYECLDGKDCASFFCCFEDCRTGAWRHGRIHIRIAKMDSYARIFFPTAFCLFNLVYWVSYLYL
recombinant rat α2β3γ2 receptors, sequence (P23576 29-451): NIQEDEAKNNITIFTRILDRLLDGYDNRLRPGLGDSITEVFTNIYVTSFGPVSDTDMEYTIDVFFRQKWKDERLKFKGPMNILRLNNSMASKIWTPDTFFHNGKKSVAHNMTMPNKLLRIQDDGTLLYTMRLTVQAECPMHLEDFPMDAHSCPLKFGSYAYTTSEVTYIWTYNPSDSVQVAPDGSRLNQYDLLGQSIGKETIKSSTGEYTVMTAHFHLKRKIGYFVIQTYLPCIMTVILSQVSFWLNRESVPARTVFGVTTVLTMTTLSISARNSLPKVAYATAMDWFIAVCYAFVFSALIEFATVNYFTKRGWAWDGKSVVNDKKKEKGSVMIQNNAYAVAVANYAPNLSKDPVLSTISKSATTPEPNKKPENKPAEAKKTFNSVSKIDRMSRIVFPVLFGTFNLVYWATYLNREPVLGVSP
recombinant rat α2β3γ2 receptors, sequence (P63079 26-473 partner): as the sequence (P63079 26-473 partner) above
recombinant rat α2β3γ2 receptors, sequence (P18508 39-466): as the sequence (P18508 39-466) above
recombinant rat α2β3γ2F77I receptors, sequence (P23576 29-451): as the sequence (P23576 29-451) above
recombinant rat α2β3γ2F77I receptors, sequence (P63079 26-473 partner): as the sequence (P63079 26-473 partner) above
recombinant rat α2β3γ2F77I receptors, sequence (P18508 39-466 F115I): as the sequence (P18508 39-466) above, with F77I counted along it

`COCc1c(C(=O)OC(C)C)ncc2[nH]c3ccc(OCc4ccccc4)cc3c12` [Abecarnil, Isopropyl-6-benzyloxy-4-methoxymethyl-β-carboline-3-carboxylate] showed an EC50 [1] of over 9000 nM, an activity at 0.01 µM [1, 13] of 192 ± 31% and an activity at 0.1 µM [1, 13] of 330 ± 58%. For the same molecule, the activity at 1 µM [1, 13] was 407 ± 83%, the activity at 10 µM [1, 13] was 640 ± 157% and the “efficacy (% GABA EC3)” value ([2]; 10 nM) was “ns”. The “efficacy (% GABA EC3)” value ([2]; 100 nM) was “ns”, the activity at 1 µM [2, 13] was 179 ± 25% and the activity at 10 µM [2, 13] was 279 ± 42%. For the same molecule, the EC50 [3] was over 1000 nM, the “efficacy (% GABA EC3)” value [3, 14] was “ns” and the “efficacy (% GABA EC3)” value [3, 15] was “ns”. For the same molecule, the activity at 1 µM ([3]; read-out: efficacy (% GABA EC3), 1 μM, α2β3γ2, ns = not significant) was 261 ± 45%, the activity at 10 µM ([3]; read-out: efficacy (% GABA EC3), 10 μM, α2β3γ2, ns = not significant) was 353 ± 62% and the “efficacy (% GABA EC3)” value ([4]; 10 nM) was “ns”. The “efficacy (% GABA EC3)” value ([4]; 100 nM) was “ns”, the activity at 1 µM [4, 13] was 206 ± 16% and the activity at 10 µM [4, 13] was 420 ± 29%. For the same molecule, the EC50 [5] was over 2000 nM, the “efficacy (% GABA EC3)” value ([5]; 10 nM) was “ns” and the activity at 0.1 µM [5, 13] was 216 ± 44%. For the same molecule, the activity at 1 µM [5, 13] was 320 ± 71%, the activity at 10 µM [5, 13] was 480 ± 100% and the “efficacy (% GABA EC3)” value ([6]; 10 nM) was “ns”. The “efficacy (% GABA EC3)” value ([6]; 100 nM) was “ns”, the activity at 1 µM [6, 13] was 192 ± 4% and the activity at 10 µM [6, 13] was 384 ± 24%. The “efficacy (% GABA EC3)” value ([7]; 1 μM) was “ns”, the activity at 10 µM [7, 13] was 279 ± 81% and the “efficacy (% GABA EC3)” value ([8]; 10 nM) was “ns”. The “efficacy (% GABA EC3)” value ([8]; 100 nM) was “ns”, the activity at 1 µM [8, 13] was 169 ± 23% and the activity at 10 µM [8, 13] was 232 ± 38%. For the same molecule, the “efficacy (% GABA EC3)” value ([9]; 10 nM) was “ns”, the “efficacy (% GABA EC3)” value ([9]; 100 nM) was “ns” and the activity at 1 µM [9, 13] was 177 ± 11%. For the same molecule, the activity at 10 µM [9, 13] was 283 ± 7%, the “efficacy (% GABA EC3)” value ([10]; 1 μM) was “ns” and the activity at 10 µM [10, 13] was 218 ± 13%. The “activity in the mutated receptors” value [11] was “inactive”.

In the case of `CCc1c(C(=O)OC)ncc2[nH]c3cc(OC)c(OC)cc3c12` [DMCM, methyl-6,7-dimethoxy-4-ethyl-β-carboline-3-carboxylate], the “efficacy (% GABA EC3)” value ([1]; 10 nM) is reported as 87 ± 8 % GABA EC3, the “efficacy (% GABA EC3)” value ([1]; 100 nM) is reported as 79 ± 11 % GABA EC3 and the “efficacy (% GABA EC3)” value ([1]; 1 μM) is reported as “ns”. For the same molecule, the “efficacy (% GABA EC3)” value ([1]; 10 μM) was 232 ± 54 % GABA EC3, the “efficacy (% GABA EC3)” value ([2]; 10 nM) was “ns” and the “efficacy (% GABA EC3)” value ([2]; 100 nM) was “ns”. For the same molecule, the “efficacy (% GABA EC3)” value ([2]; 1 μM) was 123 ± 3 % GABA EC3, the “efficacy (% GABA EC3)” value ([2]; 10 μM) was 269 ± 3 % GABA EC3 and the “efficacy (% GABA EC3)” value [3, 14] was 71 ± 7 % GABA EC3. For the same molecule, the “efficacy (% GABA EC3)” value [3, 15] was 54 ± 5 % GABA EC3, the “efficacy (% GABA EC3)” value ([3]; 1 μM, α2β3γ2, ns = not significant) was 54 ± 3 % GABA EC3 and the “efficacy (% GABA EC3)” value ([3]; 10 μM, α2β3γ2, ns = not significant) was “ns”. For the same molecule, the “efficacy (% GABA EC3)” value ([4]; 10 nM) was 103 ± 1 % GABA EC3, the “efficacy (% GABA EC3)” value ([4]; 100 nM) was 111 ± 2 % GABA EC3 and the “efficacy (% GABA EC3)” value ([4]; 1 μM) was 123 ± 1 % GABA EC3. For the same molecule, the “efficacy (% GABA EC3)” value ([4]; 10 μM) was 283 ± 17 % GABA EC3, the “efficacy (% GABA EC3)” value ([5]; 10 nM) was 78 ± 1 % GABA EC3 and the “efficacy (% GABA EC3)” value ([5]; 100 nM) was 69 ± 1 % GABA EC3. For the same molecule, the “efficacy (% GABA EC3)” value ([5]; 1 μM) was 75 ± 3 % GABA EC3, the “efficacy (% GABA EC3)” value ([5]; 10 μM) was 185 ± 15 % GABA EC3 and the “efficacy (% GABA EC3)” value ([6]; 10 nM) was “ns”. The “efficacy (% GABA EC3)” value ([6]; 100 nM) was “ns”, the “efficacy (% GABA EC3)” value ([6]; 1 μM) was 126 ± 5 % GABA EC3 and the “efficacy (% GABA EC3)” value ([6]; 10 μM) was 281 ± 26 % GABA EC3. For the same molecule, the “efficacy (% GABA EC3)” value ([7]; 10 nM) was “ns”, the “efficacy (% GABA EC3)” value ([7]; 100 nM) was 77 ± 1 % GABA EC3 and the “efficacy (% GABA EC3)” value ([7]; 1 μM) was 88 ± 2 % GABA EC3. The “efficacy (% GABA EC3)” value ([7]; 10 μM) was 155 ± 18 % GABA EC3, the “efficacy (% GABA EC3)” value [12] was 155 ± 9 % GABA EC3 and the “efficacy (% GABA EC3)” value ([8]; 10 nM) was 53 ± 4 % GABA EC3. For the same molecule, the “efficacy (% GABA EC3)” value ([8]; 100 nM) was 52 ± 5 % GABA EC3, the “efficacy (% GABA EC3)” value ([8]; 1 μM) was 56 ± 6 % GABA EC3 and the “efficacy (% GABA EC3)” value ([8]; 10 μM) was 145 ± 14 % GABA EC3. For the same molecule, the “efficacy (% GABA EC3)” value ([9]; 10 nM) was “ns”, the “efficacy (% GABA EC3)” value ([9]; 100 nM) was “ns” and the “efficacy (% GABA EC3)” value ([9]; 1 μM) was “ns”. The “efficacy (% GABA EC3)” value ([9]; 10 μM) was 211 ± 40 % GABA EC3, the “efficacy (% GABA EC3)” value ([10]; 10 nM) was “ns” and the “efficacy (% GABA EC3)” value ([10]; 100 nM) was 118 ± 9 % GABA EC3. For the same molecule, the “efficacy (% GABA EC3)” value ([10]; 1 μM) was 189 ± 21 % GABA EC3 and the “efficacy (% GABA EC3)” value ([10]; 10 μM) was 353 ± 22 % GABA EC3.
